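Protocol summary: plate cells (96-well), add compound at 5 concentrations, incubate 48 h, interpolate endpoints linearly. TGI: total growth inhibition.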
What was measured:
Assay in all cases: growth of human tumour cells (NCI), 48 h
LOX IMVI melanoma = tested on: LOX IMVI melanoma
NCI-H23 lung = tested on: NCI-H23 lung
OVCAR-8 ovarian = tested on: OVCAR-8 ovarian
RPMI-8226 leukemia = tested on: RPMI-8226 leukemia
SF-295 CNS = tested on: SF-295 CNS
SF-539 CNS = tested on: SF-539 CNS
SK-OV-3 ovarian = tested on: SK-OV-3 ovarian
SN12C renal = tested on: SN12C renal
U251 CNS = tested on: U251 CNS
UACC-257 melanoma = tested on: UACC-257 melanoma
K-562 leukemia = tested on: K-562 leukemia
MDA-MB-231 breast = tested on: MDA-MB-231 breast
MDA-N = tested on: MDA-N
NCI/ADR-RES ovarian = tested on: NCI/ADR-RES ovarian
BT-549 breast = tested on: BT-549 breast

Row | Structure (SMILES) | TGI (LOX IMVI melanoma) [µM] | TGI (NCI-H23 lung) [µM] | TGI (OVCAR-8 ovarian) [µM] | TGI (RPMI-8226 leukemia) [µM] | TGI (SF-295 CNS) [µM] | TGI (SF-539 CNS) [µM] | TGI (SK-OV-3 ovarian) [µM] | TGI (SN12C renal) [µM] | TGI (U251 CNS) [µM] | TGI (UACC-257 melanoma) [µM] | TGI (K-562 leukemia) [µM] | TGI (MDA-MB-231 breast) [µM] | TGI (MDA-N) [µM] | TGI (NCI/ADR-RES ovarian) [µM] | TGI (BT-549 breast) [µM]
1 | CN(C)C(=S)/N=c1\ssc(=S)n1Cc1ccccn1 | > 100 | > 100 | > 100 | > 25.9 | > 65.7 | 45.5 | > 100 | > 100 | > 100 | > 100 |  |  |  |  | 
2 | COc1cc(OC)c(NC2=NCCO2)cc1Cl | 99.3 | 58.1 | > 100 | > 100 | > 100 | 53.3 |  | > 100 | > 100 | > 100 | > 100 | 64.5 | 32.3 | 91.7 | 
3 | COC(=O)C(C(=O)C(=O)Nc1ccc(C)cc1C)c1nc2ccc([N+](=O)[O-])cc2[nH]c1=O (stereo not given) | > 100 | > 100 | > 100 | > 100 | > 100 | > 100 | > 100 | > 100 | > 100 | > 100 | > 100 |  |  |  | 
4 | CCN(CC)CCNC(=O)c1cc2cc(NC(=O)c3cc4cc(NC(=O)c5cc6cc([N+](=O)[O-])ccc6[nH]5)ccc4[nH]3)ccc2[nH]1 | > 100 | > 100 | > 100 | > 100 | > 100 |  | > 100 | > 100 | > 100 | > 100 | > 100 | > 100 |  | > 100 | > 100
5 | CCc1c(-c2coc(CC/C(C)=C/c3ccccc3)n2)oc(OC)c(C)c1=O | > 50.9 | > 95.4 | > 100 | > 100 | > 100 | > 65 | > 100 | > 62.2 | > 53.9 | > 100 | > 100 |  |  |  | 
6 | CC1(C)N=C(/C(C#N)=[N+](/[O-])C(=O)c2ccccc2)C(C)(C)N1O | > 100 | > 100 | > 100 | > 100 | > 100 | > 100 | > 100 | > 100 | > 100 | > 100 | > 100 | > 100 | > 100 | > 100 | 
7 | O=S(=O)(Nc1nc(-c2cc(O)c(O)c(O)c2)cs1)c1ccc(Cl)cc1Cl | 33.6 | 74.1 | 14.9 | 40.8 | 34.4 | 71.5 | > 100 | 33.4 | 37.3 | 67.7 | 48 | 44.9 | 73.9 | 69 | 
8 | Cc1ccc(-c2nc3n(c2/C=N\N=C(N)N)CCS3)cc1 | 31.9 | 30.4 | 29.3 | 68.8 | 24.6 | 28.5 | 29 | 29.6 | 28.4 | 30.5 | 44.2 | 29.9 |  | > 100 | 
9 | CCCCCCCCCCOC1C(C(C)OCCCN(C)C)OC2OC3(CCCCC3)OC21 (stereo not given) | 10.7 | 23.8 | 34.6 | 17.4 | 32.7 |  | 32.7 | 30.3 | 28.4 | 35.5 | 12.6 | 29.8 | 21.8 | 32.2 | 
10 | CC(C(O)c1ccccc1)[N+](=O)[O-] (stereo not given) | 6.02 | > 100 | 35 | 47.5 | 61.4 | 49.1 |  | 35.6 | 38.4 | 31.7 | 59.1 | 59.2 |  | 93.1 | 
11 | N=C(N)Cn1cnc2ccccc21 | > 100 | > 100 | > 100 | > 100 | > 100 | > 100 | > 100 | > 100 | > 100 | > 100 | > 100 |  |  |  | 
12 | C[n+]1c(-c2ccc(/C=N/Nc3n[nH]c(=S)n3N/N=C/c3ccc(-c4cn5ccccc5[n+]4C)cc3)cc2)cn2ccccc21 |  |  | > 100 | > 100 | > 100 | > 100 | > 100 | > 100 | > 100 | > 100 | > 100 | > 100 | > 100 | > 100 | 
13 | CNC(=O)C(NC(=O)[C@H](CC(C)C)NC(=O)[C@@H](S)CCN1C(=O)N(C)C(C)(C)C1=O)C(C)(C)C (stereo not given in full) |  | > 100 | > 100 | > 100 | > 100 |  | > 100 | > 100 |  | > 100 | > 100 |  | > 100 | > 100 | > 100
14 | O=C(OCc1c(-c2ccccc2)nn(-c2ccccc2)c1COC(=O)Oc1ccccc1)Oc1ccccc1 | > 100 | > 100 | > 100 | > 100 | > 100 | > 100 | > 100 | > 100 | > 100 | > 100 | > 100 | > 100 | > 100 | > 100 | 
15 | C=CC[C@@]1(C#N)C[C@H](C[C@]2(C#N)C[C@H](CCl)OC(C)(C)O2)OC(C)(C)O1 | > 100 | > 100 | > 100 | > 100 | > 100 | > 100 | > 100 | > 100 | > 100 | > 100 | > 100 |  |  |  | 
16 | O=C(O)C1(CC(CCCN2CCCCC2)c2ccccc2)CCCC1 (stereo not given) | > 100 | > 100 | > 100 | > 100 | > 100 | > 100 | > 100 | > 100 | > 100 |  | > 100 | > 100 | > 100 | > 100 | 
17 | Nc1ccc(S(=O)(=O)c2ccc(N=[N+]([O-])c3ccc(S(=O)(=O)c4ccc(N)cc4)cc3)cc2)cc1 | > 100 | > 82.8 | > 100 | > 100 | > 100 | 58.1 | > 90.6 | > 100 | > 57.3 | > 100 | > 100 | > 78.1 |  | > 100 | > 65.6

From PubChem BioAssay (NCI)
